The results in this text go back to patent publication US9999619B2, “Piperidin-4-yl azetidine derivatives as JAK1 inhibitors” (Incyte Corporation, priority 2010, dated 2018).

What all share (assay type): biochemical
One assay concerns the target Jak2 (a.a. 828-1132) (Homo sapiens (Human), UniProt O60674). As to the kind of experiment: In vitro JAK kinase assay (HTRF, phosphorylation of a biotinylated peptide), JAK2. The conditions noted are these: measured at 1 mM ATP. In outline:
(§1)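 Phosphorylation of a biotinylated peptide by purified His-tagged JAK catalytic domains (insect-cell baculovirus expression) ran 1 hr at room temperature. After stopping with EDTA, Eu-Py20 and SA-APC were bound for 40 minutes and HTRF measured.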
In general terms: In TR-FRET formats the signal depends on donor and acceptor labels being close together.

Assay [1] has as its target human JAK1 (a.a. 837-1142) (Homo sapiens, UniProt P23458). As to the kind of experiment: In vitro JAK kinase assay (HTRF, phosphorylation of a biotinylated peptide), JAK1. Particulars: measured at 1 mM ATP. The gist of the method: as §1
In assay [2] the target is human JAK1 (a.a. 837-1142). The description is as above. Particulars: ratio of JAK2 IC50 to JAK1 IC50, measured at 1 mM ATP. The gist of the method:
as §1

Some results are limits rather than exact numbers.

Sequence of Jak2 (a.a. 828-1132) (O60674 828-1132): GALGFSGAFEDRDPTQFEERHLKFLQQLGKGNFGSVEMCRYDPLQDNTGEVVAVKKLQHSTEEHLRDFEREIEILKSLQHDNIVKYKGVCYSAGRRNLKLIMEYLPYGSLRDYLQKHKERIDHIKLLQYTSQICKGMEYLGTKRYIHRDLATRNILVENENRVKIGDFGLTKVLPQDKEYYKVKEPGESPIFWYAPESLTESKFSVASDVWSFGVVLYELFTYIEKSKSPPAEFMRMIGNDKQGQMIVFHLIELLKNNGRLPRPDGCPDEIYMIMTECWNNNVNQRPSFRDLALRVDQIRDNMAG

The term IC50 denotes the point on the concentration scale where inhibition reaches its midpoint. Regarding `N#CCC1(n2cc(-c3ncnc4[nH]ccc34)cn2)CN(C2CCN(Cc3ccc(F)c(C#N)c3)CC2)C1` [Example 220, 5-[(4-{3-(cyanomethyl)-3-[4-(7H-pyrrolo[2,3-d]pyrimidin-4-yl)-1H-pyrazol-1-yl]azetidin-1-yl}piperidin-1-yl)methyl]-2-fluorobenzonitrile], the half-maximal inhibitory concentration (IC50) against Jak2 (a.a. 828-1132) lay within 50 to 100 nM; in assay [1] it was 5 to 20 nM. Moreover, in assay [2], the “IC50 Ratio JAK2/JAK1” value was 4.4.

For `N#CCC1(n2cc(-c3ncnc4[nH]ccc34)cn2)CN(C2CCN(C(=O)c3ccccc3)CC2)C1` [Example 9, {1-(1-benzoylpiperidin-4-yl)-3-[4-(7H-pyrrolo[2,3-d]pyrimidin-4-yl)-1H-pyrazol-1-yl]azetidin-3-yl}acetonitrile], the IC50 against Jak2 (a.a. 828-1132) is 10 to 50 nM; in assay [1], no more than 5 nM. Further, the “IC50 Ratio JAK2/JAK1” value in assay [2] worked out at 3.2.

`N#CCC1(n2cc(-c3c(F)cnc4[nH]ccc34)cn2)CN(C2CCN(C(=O)c3cnc(C(F)(F)F)cn3)CC2)C1` [Example 354, [3-[4-(5-Fluoro-1H-pyrrolo[2,3-b]pyridin-4-yl)-1H-pyrazol-1-yl]-1-(1-{[5-(trifluoromethyl)pyrazin-2-yl]carbonyl}piperidin-4-yl)azetidin-3-yl]acetonitrile]: the figures for the IC50 (on Jak2 (a.a. 828-1132); in assay [1]) were 10 to 50 nM and 5 to 20 nM, respectively. The “IC50 Ratio JAK2/JAK1” value in assay [2] is 2.1.

Take `N#CCC1(n2ccc(-c3ncnc4[nH]ccc34)c2)CN(C2CCN(C(=O)c3c(F)cccc3F)CC2)C1` [Example 279, {1-[1-(2,6-difluorobenzoyl)piperidin-4-yl]-3-[3-(7H-pyrrolo[2,3-d]pyrimidin-4-yl)-1H-pyrrol-1-yl]azetidin-3-yl}acetonitrile]: the IC50 was no more than 10 nM against Jak2 (a.a. 828-1132) and no more than 5 nM in assay [1]. The “IC50 Ratio JAK2/JAK1” value in assay [2] is 4.1.

In the case of `N#CCC1(n2cc(-c3ncnc4[nH]ccc34)cn2)CN(C2CCN(C(=O)c3cc(C(F)(F)F)ncc3F)CC2)C1` [Example 343, {1-{1-[5-Fluoro-2-(trifluoromethyl)isonicotinoyl]piperidin-4-yl}-3-[4-(7H-pyrrolo[2,3-d]pyrimidin-4-yl)-1H-pyrazol-1-yl]azetidin-3-yl}acetonitrile], the IC50 against Jak2 (a.a. 828-1132) lay within 50 to 100 nM; in assay [1], 5 to 20 nM. In addition, the “IC50 Ratio JAK2/JAK1” value in assay [2] is 5.5.

For the compound `N#CCC1(n2cc(-c3ncnc4[nH]ccc34)cn2)CN(C2CCN(C(=O)c3cc(F)ccc3F)CC2)C1` [Example 43, {1-[1-(2,5-difluorobenzoyl)piperidin-4-yl]-3-[4-(7H-pyrrolo[2,3-d]pyrimidin-4-yl)-1H-pyrazol-1-yl]azetidin-3-yl}acetonitrile], the IC50 at Jak2 (a.a. 828-1132) is 10 to 50 nM; in assay [1] it was no more than 5 nM. The “IC50 Ratio JAK2/JAK1” value in assay [2] turned out to be 5.0.

On to `N#CCC1(n2cc(-c3ncnc4[nH]ccc34)cn2)CN([C@@H]2CCN(C(=O)c3ccnc(C(F)(F)F)c3F)C[C@@H]2F)C1` (relative stereo) [Example 361, {1-{cis-3-Fluoro-1-[3-fluoro-2-(trifluoromethyl)isonicotinoyl]piperidin-4-yl}-3-[4-(7H-pyrrolo[2,3-d]pyrimidin-4-yl)-1H-pyrazol-1-yl]azetidin-3-yl}acetonitrile], for which the values for the IC50 (at Jak2 (a.a. 828-1132); in assay [1]) were 50 to 100 nM and no more than 5 nM, respectively. The “IC50 Ratio JAK2/JAK1” value in assay [2] was found to be 20.9.

For `N#CCC1(n2cc(-c3ccnc4[nH]ccc34)cn2)CN(C2CCN(C(=O)c3ccnc(C(F)(F)F)n3)CC2)C1` [Example 299, [3-[4-(1H-pyrrolo[2,3-b]pyridin-4-yl)-1H-pyrazol-1-yl]-1-(1-{[2-(trifluoromethyl)pyrimidin-4-yl]carbonyl}piperidin-4-yl)azetidin-3-yl]acetonitrile], the IC50 is greater than 100 nM at Jak2 (a.a. 828-1132) and 20 to 30 nM in assay [1]. In assay [2], the “IC50 Ratio JAK2/JAK1” value was 6.6.

For `N#CCC1(n2ccc(-c3ncnc4[nH]ccc34)c2)CN(C2CCN(C(=O)c3c(F)cc(C#N)cc3F)CC2)C1` [Example 265, 4-[(4-{3-(cyanomethyl)-3-[3-(7H-pyrrolo[2,3-d]pyrimidin-4-yl)-1H-pyrrol-1-yl]azetidin-1-yl}piperidin-1-yl)carbonyl]-3,5-difluorobenzonitrile], the concentration for half-maximal inhibition (IC50) against Jak2 (a.a. 828-1132) lay in the range of 50 to 100 nM; in assay [1], 5 to 20 nM. The “IC50 Ratio JAK2/JAK1” value in assay [2] was 6.6.

For `N#CCC1(n2cc(-c3ncnc4[nH]ccc34)cn2)CN(C2CCN(C(=O)c3cccc4ccccc34)CC2)C1` [Example 87, {1-[1-(1-naphthoyl)piperidin-4-yl]-3-[4-(7H-pyrrolo[2,3-d]pyrimidin-4-yl)-1H-pyrazol-1-yl]azetidin-3-yl}acetonitrile], the IC50 against Jak2 (a.a. 828-1132) was no more than 10 nM; in assay [1], no more than 5 nM. In assay [2], the “IC50 Ratio JAK2/JAK1” value is on record as 0.3.

Take `N#CCC1(n2cc(-c3ncnc4[nH]ccc34)cn2)CN(C2CCN(C(=O)Nc3c(F)cccc3F)CC2)C1` [Example 156, 4-{3-(cyanomethyl)-3-[4-(7H-pyrrolo[2,3-d]pyrimidin-4-yl)-1H-pyrazol-1-yl]azetidin-1-yl}-N-(2,6-difluorophenyl)piperidine-1-carboxamide]: the IC50 on Jak2 (a.a. 828-1132) is 10 to 50 nM; in assay [1], no more than 5 nM. Further, the “IC50 Ratio JAK2/JAK1” value in assay [2] is 11.2.

Take `Cc1nc(F)ccc1NC(=O)N1CCC(N2CC(CC#N)(n3cc(-c4ncnc5[nH]ccc45)cn3)C2)CC1` [Example 199, 4-{3-(cyanomethyl)-3-[4-(7H-pyrrolo[2,3-d]pyrimidin-4-yl)-1H-pyrazol-1-yl]azetidin-1-yl}-N-(6-fluoro-2-methylpyridin-3-yl)piperidine-1-carboxamide]: the half-inhibitory concentration (IC50) was 10 to 50 nM at Jak2 (a.a. 828-1132) and no more than 5 nM in assay [1]. Moreover, the “IC50 Ratio JAK2/JAK1” value in assay [2] is on record as 10.0.

For the compound `N#CCC1(n2cc(-c3ncnc4[nH]ccc34)cn2)CN(C2CCN(C(=O)c3ccc(F)c(F)c3F)CC2)C1` [Example 46, {3-[4-(7H-pyrrolo[2,3-d]pyrimidin-4-yl)-1H-pyrazol-1-yl]-1-[1-(2,3,4-trifluorobenzoyl)piperidin-4-yl]azetidin-3-yl}acetonitrile], the IC50 was 10 to 50 nM against Jak2 (a.a. 828-1132) and no more than 5 nM in assay [1]. In addition, the “IC50 Ratio JAK2/JAK1” value in assay [2] stood at 6.3.

`Cn1cnc(S(=O)(=O)N2CCC(N3CC(CC#N)(n4cc(-c5ncnc6[nH]ccc56)cn4)C3)CC2)c1` [Example 258, {1-{1-[(1-methyl-1H-imidazol-4-yl)sulfonyl]piperidin-4-yl}-3-[4-(7H-pyrrolo[2,3-d]pyrimidin-4-yl)-1H-pyrazol-1-yl]azetidin-3-yl}acetonitrile]: the IC50 is no more than 10 nM on Jak2 (a.a. 828-1132) and no more than 5 nM in assay [1]. The “IC50 Ratio JAK2/JAK1” value in assay [2] is recorded as 5.0.

With `N#CCC1(n2cc(-c3ncnc4[nH]ccc34)cn2)CN(C2CCN(C(=O)c3ccc(-c4cc(F)cc(C#N)c4)c(F)c3)CC2)C1` [Example 128, 4′-[(4-{3-(cyanomethyl)-3-[4-(7H-pyrrolo[2,3-d]pyrimidin-4-yl)-1H-pyrazol-1-yl]azetidin-1-yl}piperidin-1-yl)carbonyl]-2′,5-difluorobiphenyl-3-carbonitrile], the IC50 at Jak2 (a.a. 828-1132) was 10 to 50 nM; in assay [1], no more than 5 nM. Moreover, the “IC50 Ratio JAK2/JAK1” value in assay [2] turned out to be 3.5.

On to `N#CCC1(n2cc(-c3ncnc4[nH]ccc34)cn2)CN(C2CCN(C(=O)c3ccc(-c4ccccc4)cc3)CC2)C1` [Example 114, {1-[1-(biphenyl-4-ylcarbonyl)piperidin-4-yl]-3-[4-(7H-pyrrolo[2,3-d]pyrimidin-4-yl)-1H-pyrazol-1-yl]azetidin-3-yl}acetonitrile], for which the figures for the IC50 (on Jak2 (a.a. 828-1132); in assay [1]) were 10 to 50 nM and 5 to 20 nM, respectively. Besides, the “IC50 Ratio JAK2/JAK1” value in assay [2] is recorded as 1.5.
